The target in this test is SARS-CoV-2 3CL protease (Severe acute respiratory syndrome coronavirus 2, UniProt P0DTD1). In words: biochemical. The following applies: for Normalized SARS-CoV-2 3CL protease activity: 0.2 µM protease with 50 µM tested compound; for Normalized SARS-CoV-2 3CL protease activity / Protease activity (normalized): replicates; for IC90 / Protease activity (normalized) / IC50: 200 nM protease; for IC50: read-out: IC50; for activity against SARS-CoV-2 3CL protease (in words): compound 4 analogs.

Several values for one entry are separate records, joined by “and”; a condition that tells them apart may be missing. Identical values can stand only once. Some results are limits rather than exact numbers.

On to `CCOC(=O)C=CC(CC1CCNC1=O)NC(=O)C(CC(C)C)NC(=O)OCc1ccccc1` (stereo not shown) [AZVIII-41A], for which the “Normalized SARS-CoV-2 3CL protease activity” value is 0.05469 and 0.07659 and 0.08287; the IC90 was more than 50 µM; the IC50 was more than 50 µM. The “Protease activity (normalized)” value (log10[nM] 0.404879) is 0.9534 and 1.001 and 1.046. For the same compound, the “Protease activity (normalized)” value (log10[nM] 0.882) is 0.9954 and 1.035 and 1.1072. The “Protease activity (normalized)” value (log10[nM] 1.35912) is 0.9788 and 1.032 and 1.063. Besides, where the note is “log10[nM] 1.83624”, the “Protease activity (normalized)” value is 0.8536 and 0.8662 and 0.892. Moreover, the “Protease activity (normalized)” value (log10[nM] 2.31336) is 0.8339 and 0.8695 and 0.9444. In addition, the “Protease activity (normalized)” value (log10[nM] 2.79048) was 0.86 and 0.9004 and 0.9124. In addition, the “Protease activity (normalized)” value (log10[nM] 3.26761) is 0.9439 and 0.9917 and 1.018. The “Protease activity (normalized)” value (log10[nM] 3.74473) was 0.9845 and 1.046 and 1.061. The “Protease activity (normalized)” value (log10[nM] 4.22185) was 0.8912 and 0.9195 and 0.9785. Under “log10[nM] 4.69897”, the “Protease activity (normalized)” value is 0.4548 and 0.5207 and 0.5344. Besides, where the note is “log10[nM] -0.0722425”, the “Protease activity (normalized)” value was 0.8359 and 0.8847 and 0.9024. Further, the “Protease activity (normalized)” value (log10[nM] -0.549364) is 0.7778 and 0.8128 and 0.8188.

Regarding `CC(C)(C)OC(=O)NC(C=O)CC1CCNC1=O` (stereo not shown) [AZVIII-42], the “Normalized SARS-CoV-2 3CL protease activity” value is 0.09531 and 0.1273 and 0.138; the IC90 is more than 50 µM; the “activity against SARS-CoV-2 3CL protease (in words)” value is reported as “functioned slightly better”.

`CC(C)(C)OC(=O)NC(CC1CCNC1=O)Cn1sc2ccccc2c1=O` (stereo not shown) [AZVIII-43A]: the “Normalized SARS-CoV-2 3CL protease activity” value was 1.104 and 1.129 and 1.238; the IC50 was more than 50 µM; the “activity against SARS-CoV-2 3CL protease (in words)” value is recorded as “did not produce active compounds”.

Take `O=S(=O)(NCc1cccnc1)c1cccnc1` [AZVIII-44B]: the “Normalized SARS-CoV-2 3CL protease activity” value is 1.138 and 1.193 and 1.162; the IC50 was more than 50 µM.

Regarding `O=S(=O)(NCc1ccccc1)c1ccccc1` [AZVIII-44D], the “Normalized SARS-CoV-2 3CL protease activity” value was 1.234 and 1.326 and 1.299; the IC50 was more than 50 µM.

`O=S(=O)(NCc1ccccc1)c1cccnc1` [AZVIII-44E]: the “Normalized SARS-CoV-2 3CL protease activity” value was 1.222 and 1.184 and 1.143; the IC50 was more than 50 µM.

For the compound `COc1ccc(CNS(=O)(=O)c2cccnc2)cc1` [AZVIII-44H], the “Normalized SARS-CoV-2 3CL protease activity” value is 0.9803 and 0.9852 and 1.015; the IC50 was more than 50 µM.

For the compound `O=S(=O)(NCc1ccncn1)c1cccnc1` [AZVIII-49C], the “Normalized SARS-CoV-2 3CL protease activity” value was 1.015 and 1.0173 and 1.005; the IC50 is more than 50 µM.

For the origin of these results see paper PMC8989888, “Development of optimized drug-like small molecule inhibitors of the SARS-CoV-2 3CL protease for treatment of COVID-19” (Nature Communications, 2022).
